“And” between values parts separate entries of the source, which are not always exact repeats. Equal entries are not always repeated. “Also recorded” adds a separate entry of the source.

In one series the test system is Plasmodium yoelii (17×). Nature of the series: Sporozoite induced test in mouse (causal prophylactic activity). The format is in vivo. The following applies: sporozoite challenged CD-1 mice; single dose 4 hours before inoculation; oral administration. The protocol: The causal prophylactic antimalarial activity of the new carbamate derivatives were assessed in a sporozoites challenged mouse model according to the following protocol and the results are shown in Table 4 and Table 5.
Each compound was ground with a mortar and pestle and suspended in 0.5% hydroxyethylcellulose and 0.1% Tween 80 for compounds to be administered PO and those given SC were suspended in peanut oil. Each compound is prepared at 3 different dose levels.
Compounds were administered either PO or SC to mice once 4 hours before inoculation of sporozoites.
Four-week-old male CD-1 mice, purchased from Charles River and weighing about 16 to about 17 grams were placed 5 per cage and allowed to acclimate for 4 days before being treated and then inoculated with sporozoites. They were fed food and water ad-lib and maintained at 76° F. with 12 hour light and 12 hour darkness. The cages and water bottles were changed biweekly. The mice are weighed on Days 0, 3 and 6 then biweekly when blood films were taken.
Plasmodium yoelii (17×) was used to infect mice that will be used to infect the mosquitoes.
Mice were given a single dose of test compound 4 hours before being inoculated intraperitoneally with 2.5×10^5 sporozoites of Plasmodium yoelii on Day 0. Whole body weights were taken on Day 0 and Day 6 then twice a week for 31 days. A blood film was taken on Day 5 and then twice a week for 31 days. Mice loosing greater than about 20% of their body weight were sacrificed. All mice alive on Day 31 with no parasites in a blood film were considered cured. Donor mice used to infect the mosquitoes were infected with 2.5×10^4 parasitized erythrocytes. The mosquitoes were allowed to feed on these malaria-infected mice on Day 4 of their infection when the parasitemia was low.
A compound was considered active against either the sporozoite or the EE stage if no parasites were found in the blood films taken on Day 5 or on subsequent blood films taken weekly for 31 days.
Mice alive on Day 31 with no parasites found in any blood films were considered cured.

For series [1], the system named is P. cynomolgi sporozoites. Nature of the series: Oral causal prophylactic assay in Rhesus monkey (compound 3 IM; 4b and 3c PO). It is filed as in vivo, Plasmodium cynomolgi. The following applies: per monkey. The protocol:
To test the causal prophylactic intramuscular potency of the purified isomer of compound 3 and oral potency of two carbamate derivatives of 2-guanidinylimidazolidinedione (4b and 3c) the following assay was conducted.
Fourteen rhesus monkeys were issued.
A donor monkey was inoculated intravenously with 1.3 ml, freshly-thawed frozen infected red blood cell (DA310). When the monkey developed gametocytemia, mosquito feedings were conducted on days 15 and 16 after inoculation. The donor monkey was treated with intramuscular chloroquine hydrochloride (CQ) 10 mg/kg, once a day after the second mosquito feeding and continued for 6 days.
On day 0 of the beginning of the assay, each of the 14 monkeys was inoculated intravenously with 1-ml inoculum of suspension containing about 1.0×10^6 P. cynomolgi sporozoites harvested from Anopheles dirus mosquitoes' salivary glands previously fed on the donor monkey.
All monkeys received treatment on days −1, 0 and 1. The control monkeys (Group 1) received HECT orally and the experimental animals received testing compound intramuscularly (Groups 2 and 3) or orally (Groups 4 to 7).

Series [2] is described as follows: Solubility and characteristics of the compounds in the dosing vehicle. It is filed as physicochemical.
The subject of series [3] is P. cynomolgi sporozoites. Put plainly: Causal prophylactic assay for intramuscular administration in Rhesus monkey. The format is in vivo, Plasmodium cynomolgi. The protocol: The causal prophylactic antimalarial activity of the two 2-guanidinylimidazolidinedione carbamates 3c and 4b were assessed against Plasmodium cynomolgi in Rhesus monkey. Two monkeys were used in each test group. The average control animal developed parasitemia is about 10 days after inoculation of about 1×10^6 P. cynomolgi sporozoites harvested from Anopheles dirus.
In order to study the causal prophylactic activity of the 2-guanidinylimidazolidinedione compounds of the present invention, the following assay was conducted. Twelve rhesus monkeys were issued. The monkeys were randomized to 2 control animals and 5 groups of 2 experimental animals each.
A donor monkey was inoculated intravenously with 1.3 ml, freshly-thawed frozen infected red blood cells (DA310). The experiments were conducted in US Army oversea laboratory, AFRIMS, Bankoku, Thailand. When the donor monkey developed gametocytemia, mosquito feedings were conducted on days 13 and 14 after inoculation. The donor monkey was treated with intramuscular chloroquine hydrochloride (CQ) 10 mg/kg, once a day after the second mosquito feeding and continued for 7 days.
On day 0 (beginning of assay), each of the 12 monkeys was inoculated intravenously with 1-ml inoculum of suspension containing about 1.0×10^6 P. cynomolgi sporozoites harvested from Anopheles dirus mosquitoes' salivary glands previously fed on the donor monkey. See Corcoran, K D, et al. (1993) Am. J. Trop. Med. Hyg. 49:473–477, and Shanks, G D, et al. (2001) Clinical Infectious Diseases 33:1968–1974, which are herein incorporated by reference.
All monkeys received treatment on days −1, 0 and 1. The control monkeys received dimethylsulfoxide (DMSO) and the experimental animals received testing compound intramusculary.

Consider `CCOC(=O)N=C(N=C1NC(=O)C(=O)N1C(C)C)Nc1ccc(Cl)c(Cl)c1` [Compound 3a, N-(3,4-dichlorophenyl)-N′-ethoxycarbonyl-N″-(1-isopropyl-4,5-dioxo-imidazolidin-2-ylidene)-guanidine], for which the melting point (as a rule, the temperature of the solid-liquid transition) turned out to be 257 °C. For the same compound, the “Minimum Protective Dose Against P. yoelii” value in the series on Plasmodium yoelii (17×) is on record as 2.5 mg/kg.
For the compound `CC(C)N1C(=O)C(=O)NC1=NC(=NC(=O)OC(C)(C)C)Nc1ccc(Cl)c(Cl)c1` [Compound 3c, N-(3,4-dichlorophenyl)-N′-(1-isopropyl-4,5-dioxoimidazolidin-2-ylidene)-N″-(tert-butoxycarbonyl)-guanidine], the “Day of Parasitemia” value in the series with P. cynomolgi sporozoites [1] (10 mg/kg PO, 10 mg/kg) was 9 days and 10 days; with P. cynomolgi sporozoites [1] (30 mg/kg PO, 30 mg/kg), 10 days and 11 days. Besides, the “Result (delay the parasitemia)” value in the series on P. cynomolgi sporozoites [1] (10 mg/kg PO, 10 mg/kg) was 2 days and 1 days; in the series with P. cynomolgi sporozoites [1] (30 mg/kg PO, 30 mg/kg) it was 3 days and 2 days. The “Minimum Protective Dose Against P. yoelii” value with Plasmodium yoelii (17×) was 40 mg/kg. Further, the Sediment result in series [2] (vehicle DMSO, dosage 10 mg/kg) is on record as “None”; in series [2] (vehicle DMSO, dosage 30 mg/kg) it was “None”. Besides, the Solubility result in series [2] (vehicle DMSO, dosage 10 mg/kg) is recorded as “Good”; in series [2] (vehicle DMSO, dosage 30 mg/kg) it was “Good”; in series [2] (vehicle HECT, dosage 10 mg/kg) it was “Moderate”; in series [2] (vehicle HECT, dosage 30 mg/kg) it was “Moderate”. The Supernatant entry is “Turbid” in series [2] (vehicle HECT, dosage 10 mg/kg) and “Turbid” in series [2] (vehicle HECT, dosage 30 mg/kg).
For the compound `CC(C)NC(=N)NC1=NC(=O)C(=O)N1c1ccc(Cl)c(Cl)c1` [Compound 4, N-[1-(3,4-dichlorophenyl)-4,5-dioxo-4,5-dihydro-1H-imidazol-2-yl]-N′-isopropylguanidine], the melting point was 244 °C and 245 °C. The “Minimum Protective Dose Against P. yoelii” value in the series with Plasmodium yoelii (17×) is recorded as 5 mg/kg.
With `CC(C)COC(=O)N=C(N=C1NC(=O)C(=O)N1c1ccc(Cl)c(Cl)c1)NC(C)C` [Compound 4b, N-[1-(3,4-dichlorophenyl)-4,5-dioxo-imidazolidin-2-ylidene]-N′-isopropyl-N″-(isobutyloxycarbonyl)guanidine], the “Day of Parasitemia” value with P. cynomolgi sporozoites [1] (10 mg/kg PO) is 8 days; in the series with P. cynomolgi sporozoites [1] (30 mg/kg PO) it was 8 days; with P. cynomolgi sporozoites [3] (10 mg/kg IM on days -1, 0 and 1, per monkey, 10 mg/kg) it was “Parasitemia on day 47 and Parasite free on day 100 and 47 day and Remain parasite free”; with P. cynomolgi sporozoites [3] (30 mg/kg IM on days -1, 0 and 1, per monkey, 30 mg/kg), “stayed parasite free 100 days after treatment; also recorded: Parasite free on day 100; also recorded: Remain parasite free”. The “Result (delay the parasitemia)” value with P. cynomolgi sporozoites [1] (10 mg/kg PO, 10 mg/kg) is reported as “not protected; also recorded: No activity”; in the series on P. cynomolgi sporozoites [1] (30 mg/kg PO, 30 mg/kg), “not protected; also recorded: No activity”. Also, the “Result (causal prophylaxis = parasite free for 100 days after treatment)” value in the series with P. cynomolgi sporozoites [3] (10 mg/kg IM, 10 mg/kg) is on record as “protected one monkey; also recorded: Causal prophylaxis; also recorded: Delay the parasitemia”; in the series with P. cynomolgi sporozoites [3] (30 mg/kg IM, 30 mg/kg), “protected; also recorded: Causal prophylaxis”. In the series with P. cynomolgi sporozoites [3] (10 mg/kg IM, the monkey not protected), this compound registered a Delay of parasitemia of 34 days. The “Protective / prophylactic activity (in words)” value in the series on P. cynomolgi sporozoites [3] (10 and 30 mg/kg, intramuscular) was “partial to complete prophylactic activity; also recorded: protective activity”. Moreover, the “Minimum Protective Dose Against P. yoelii” value with Plasmodium yoelii (17×) worked out at 2.5 mg/kg. The Sediment result in series [2] (vehicle DMSO, dosage 10 mg/kg) is reported as “None”. Further, the Solubility entry in series [2] (vehicle DMSO, dosage 10 mg/kg) was “Good”; in series [2] (vehicle HECT, dosage 10 mg/kg), “Moderate”; in series [2] (vehicle HECT, dosage 30 mg/kg) it was “Moderate”. Also, the Supernatant entry in series [2] (vehicle DMSO, dosage 10 mg/kg) is recorded as “Clear”; in series [2] (vehicle DMSO, dosage 30 mg/kg) it was “Clear”; in series [2] (vehicle HECT, dosage 10 mg/kg), “Turbid”; in series [2] (vehicle HECT, dosage 30 mg/kg), “Turbid”.
In turn, `CC(C)NC(=NC(=O)OCc1ccccc1)N=C1NC(=O)C(=O)N1c1ccc(Cl)c(Cl)c1` [Compound 4d, N-[1-(3,4-dichlorophenyl)-4,5-dioxo-imidazolidin-2-ylidene]-N′-isopropyl-N″-(benzyloxycarbonyl)guanidine] displayed a melting point of 211 °C. Also, the “Minimum Protective Dose Against P. yoelii” value in the series on Plasmodium yoelii (17×) amounted to 10 mg/kg.
Compound `N=C(N=C1NC(=O)C(=O)N1c1ccc(Cl)c(Cl)c1)Nc1ccc(Cl)c(Cl)c1` [Compound 19, N-(3,4-dichlorophenyl)-N′-[1-(3,4-dichlorophenyl)-4,5-dioxo-imidazolidin-2-ylidene]-guanidine] came in with a melting point of 220 °C.
